Test results: patent publication US20230044787A1, “TRICYCLE DIHYDROIMIDAZOPYRIMIDONE DERIVATIVE, PREPARATION METHOD THEREOF, PHARMACEUTICAL COMPOSITION AND USE THEREOF” (priority 2019, published 2023)

The compounds below were run against T1, Lp-PLA2 (Homo sapiens, UniProt Q13093) (assay: Lipoprotein-associated phospholipase A2 (Lp-PLA2) human plasma assay (Thio-PAF assay)). Conditions: Comparison of activity data (I); pooled human plasma, 2-thio-PAF substrate, 30-min pre-incubation.
T1 construct: aliquoted and thawed 40 μL of pooled human plasma was previously added; from tissue; host or cells: pooled human plasma
T1 sequence (Q13093 22-441): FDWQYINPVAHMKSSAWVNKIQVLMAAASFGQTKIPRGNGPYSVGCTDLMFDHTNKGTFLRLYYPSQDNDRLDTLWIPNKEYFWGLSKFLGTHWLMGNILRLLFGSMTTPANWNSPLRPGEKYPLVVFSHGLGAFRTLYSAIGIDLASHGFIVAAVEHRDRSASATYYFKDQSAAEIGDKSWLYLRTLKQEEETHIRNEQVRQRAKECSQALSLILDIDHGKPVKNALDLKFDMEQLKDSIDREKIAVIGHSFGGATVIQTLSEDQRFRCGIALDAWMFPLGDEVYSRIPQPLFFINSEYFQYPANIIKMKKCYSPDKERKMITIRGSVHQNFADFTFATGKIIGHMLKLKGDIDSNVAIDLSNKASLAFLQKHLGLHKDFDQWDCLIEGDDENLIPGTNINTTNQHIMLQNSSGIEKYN
Type: biochemical
Description: Lipoprotein-Associated Phospholipase A2 (Lp-PLA2) Human Plasma Assay
The amount of sulfhydryl groups is continuously determined by the reaction with CPM (7-diethylamino-3-(4′-maleimidophenyl)-4-methylcoumarin), and the CPM is a maleimide of which fluorescence increases after Michael addition of sulfhydryl group. This assay can detect Lp-PLA2 activity in human plasma, as determined by specific inhibition of Lp-PLA2 inhibitors.
Thio-PAF assay was performed as quenched 75 μL assay. Compound source plate was prepared for each compound by preparing 1:3 (by volume) serial dilutions in pure DMSO in a 96-well microplate. The compound on the source plate was diluted 20-fold by transferring 3 μL of the compound from the compound source plate into a 96-well microplate pre-added with 57 μL of assay buffer by Rainin multichannel pipette. The assay buffer described above consisted of 50 mM HEPES, pH 7.4, 150 mM NaCl, 1 mM CHAPS. 1 μL of the 20-fold diluted compound was transferred by Rainin multichannel pipette into a 96-well Greiner 655076 (black) microplate to which aliquoted and thawed 40 μL of pooled human plasma was previously added. The plate was shaken for 20 seconds on a microplate shaker to mix well. After a 30-min pre-incubation at room temperature, 10 μL of substrate solution was added to the 96-well Greiner 655076 (black) microplate by Rainin multichannel pipette, in which the substrate solution contained 2.5 mM 2-thio-PAF [from ethanol stock], 32 μM CPM [from DMSO stock], and 3.2 mM NEM (N-ethylmaleimide) [freshly prepared in DMSO per experiment] in assay buffer consisting of 50 mM HEPES, pH 7.4; 150 mM NaCl; 1 mM CHAPS. After 2 min, the reaction was quenched with […] of 5% trifluoroacetic acid (TFA) in water. The plate was centrifuged at 2000 rpm for 1 minute. The plate was read at ex:380/em:485 using a Biotek Synergy H1 (H1MF) microplate reader. IC50 data, curves and QC analysis were performed using GraphPad Prism 6.0 and Excel.
In the case of `O=c1nc(OCc2cc(F)c(F)c(F)c2)cc2n1CC1COCCN21` (racemic) [Corresponding racemate of Example 123 in WO2016011930A1, reference compound], the IC50 is reported as 63.3 nM.

Same assay, conditions: Lp-PLA2 human plasma assay (Thio-PAF), pooled human plasma, 30-min pre-incubation at room temperature
Compound `O=c1nc(OCc2cc(F)c(Oc3ccnc(C(F)(F)F)c3)c(F)c2)cc2n1C[C@]13CO[C@H](CN21)C3` [Example 1] has an IC50 of 4.4 nM. For `N#Cc1cc(COc2cc3n(c(=O)n2)CC24CCC(CC2)N34)ccc1Oc1cccc(C(F)(F)F)c1` [Example 2, 5-(((1-Oxo-7,8-dihydro-1H,6H,9H-6,8a-ethanopyrrolo[1′,2′:3,4]imidazo[1,2-c]pyrimidin-3-yl)oxy)methyl)-2-(3-(trifluoromethyl)phenoxy)benzonitrile], the IC50 was 2.6 nM. Work on `O=c1nc(OCc2cc(F)c(Oc3ccc(Cl)c(C(F)(F)F)c3)c(F)c2)cc2n1C[C@]13CO[C@H](CN21)C3` [Example 4, (3S,11aR)-7-((4-(4-chloro-3-(trifluoromethyl)phenoxy)-3,5-difluorobenzyl)oxy)-3,4-dihydro-1H,9H,11H-3,11a-methanopyrimido[6′-,1′:2,3] imidazo[5,1-c][1,4]oxazin-9-one] yielded an IC50 of 2.5 nM. Compound `O=c1nc(OCc2cc(F)c(Oc3ccnc(OC(F)(F)F)c3)c(F)c2)cc2n1C[C@]13CO[C@H](CN21)C3` [Example 5, (3S,11aR)-7-((3,5-difluoro-4-((2-(trifluoromethoxy)pyridin-4-yl)oxy)benzyl)oxy)-3,4-dihydro-1H,9H,11H-3,11a-methanopyrimido[6′,1′:2,3] imidazo[5,1-c][1,4]oxazin-9-one] has an IC50 of 4.2 nM. `O=c1nc(OCc2cc(F)c(Oc3ccnc(Cl)c3)c(F)c2)cc2n1C[C@]13CO[C@H](CN21)C3` [Example 6, (3S,11aR)-7-((4-((2-chloropyridin-4-yl)oxy)-3,5-difluorobenzyl)oxy)-3,4-dihydro-1H,9H,11H-3,11a-methanopyrimido[6′,1′:2,3] imidazo[5,1-c][1,4]oxazin-9-one] was tested, and the IC50 was 4.9 nM. With `O=c1nc(OCc2cc(F)c(Oc3cnc(C(F)(F)F)nc3)c(F)c2)cc2n1C[C@]13CO[C@H](CN21)C3` [Example 7, (3S,11aR)-7-((3,5-difluoro-4-((2-(trifluoromethyl)pyrimidin-5-yl)oxy)benzyl)oxy)-3,4-dihydro-1H,9H,11H-3,11a-methanopyrimido[6′,1′:2,3] imidazo[5,1-c][1,4]oxazin-9-one] the IC50 was 2.5 nM. For `O=c1nc(OCc2cc(F)c(Oc3cncc(C(F)(F)F)c3)c(F)c2)cc2n1C[C@]13CO[C@H](CN21)C3` [Example 8], the IC50 was 4.9 nM. In the case of `O=c1nc(OCc2cc(F)c(Oc3ccc(C(F)(F)F)nc3)c(F)c2)cc2n1C[C@]13CO[C@H](CN21)C3` [Example 9], the IC50 is reported as 6.5 nM. `Cc1cc(Oc2c(F)cc(COc3cc4n(c(=O)n3)C[C@]35CO[C@H](CN43)C5)cc2F)ccn1` [Example 10, (3S,11aR)-7-((3,5-difluoro-4-((2-methyl-pyridin-4-yl)oxy)benzyl)oxy)-3,4-dihydro-1H,9H,11H-3,11a-methanopyrimido[6′,1′:2,3] imidazo[5,1-c][1,4]oxazin-9-one] was tested, and the IC50 was 6.7 nM. `Cn1cc(Oc2c(F)cc(COc3cc4n(c(=O)n3)C[C@]35CO[C@H](CN43)C5)cc2F)cn1` [Example 11, (3S,11aR)-7-((3,5-difluoro-4-((1-methyl-1H-pyrazol-4-yl)oxy)benzyl)oxy)-3,4-dihydro-1H,9H,11H-3,11a-methanopyrimido[6′,1′:2,3] imidazo[5,1-c][1,4]oxazin-9-one] gave an IC50 of 10.8 nM. `N#Cc1cc(Oc2ccc(COc3cc4n(c(=O)n3)C[C@]35CO[C@H](CN43)C5)cc2F)cc(C(F)(F)F)c1` [Example 12] showed an IC50 of 4.3 nM. For `O=c1nc(OCc2ccc(Oc3ccc(Cl)c(C(F)(F)F)c3)c(F)c2)cc2n1C[C@]13CO[C@H](CN21)C3` [Example 14, (3S,11aR)-7-((4-(4-chloro-3-(trifluoromethyl)phenoxy)-3-fluorobenzyl)oxy)-3,4-dihydro-1H,9H,11H-3,11a-methanopyrimido[6′,1′:2,3] imidazo[5,1-c][1,4]oxazin-9-one], the IC50 was 4.6 nM. Compound `O=c1nc(OCc2ccc(Oc3ccnc(C(F)(F)F)c3)cc2)cc2n1C[C@]13CO[C@H](CN21)C3` [Example 15, (3S,11aR)-7-((4-((2-(trifluoromethyl)pyridin-4-yl)oxy)benzyl)oxy)-3,4-dihydro-1H,9H,11H-3,11a-methanopyrimido[6′,1′:2,3] imidazo[5,1-c][1,4]oxazin-9-one] has an IC50 of 6.6 nM. `O=c1nc(OCc2ccc(Oc3ccc(Cl)c(C(F)(F)F)c3)cc2)cc2n1C[C@]13CO[C@H](CN21)C3` [Example 16, (3S,11aR)-7-((4-(4-chloro-3-(trifluoromethyl)phenoxy)benzyl)oxy)-3,4-dihydro-1H,9H,11H-3,11a-methanopyrimido[6′,1′:2,3] imidazo[5,1-c][1,4]oxazin-9-one] was tested, and the IC50 was 5.2 nM. Compound `O=c1nc(OCc2ccc(Oc3ccc(F)c(C(F)(F)F)c3)nc2)cc2n1C[C@]13CO[C@H](CN21)C3` [Example 17, (3S,11aR)-7-((6-(4-fluoro-3-(trifluoromethyl)phenoxy)pyridin-3-yl)methoxy)-3,4-dihydro-1H,9H,11H-3,11a-methanopyrimido[6′,1′:2,3] imidazo[5,1-c][1,4]oxazin-9-one] has an IC50 of 32.4 nM. For `N#Cc1cc(COc2cc3n(c(=O)n2)C[C@]24CO[C@H](CN32)C4)ccc1Oc1ccc(Cl)c(C(F)(F)F)c1` [Example 18, 5-((((3S,11aR)-9-oxo-3,4-dihydro-1H,9H,11H-3,11a-methanopyrimido[6′,1′:2,3]imidazo[5,1-c][1,4]oxazin-7-yl)oxy)methyl)-2-(4-chloro-3-(trifluoromethyl)phenoxy) benzonitrile], the IC50 was 3.5 nM. Work on `N#Cc1cc(COc2cc3n(c(=O)n2)C[C@]24CO[C@H](CN32)C4)ccc1Oc1cccc(C(F)(F)F)c1` [Example 19, 5-((((3S,11aR)-9-oxo-3,4-dihydro-1H,9H,11H-3,11a-methanopyrimido[6′,1′:2,3]imidazo[5,1-c][1,4]oxazin-7-yl)oxy)methyl)-2-(3-(trifluoromethyl)phenoxy) benzonitrile] yielded an IC50 of 3.9 nM. Compound `N#Cc1cc(COc2cc3n(c(=O)n2)C[C@]24CO[C@H](CN32)C4)ccc1Oc1ccc(Cl)c(F)c1` [Example 20] has an IC50 of 6.8 nM. `N#Cc1cc(COc2cc3n(c(=O)n2)C[C@]24CO[C@H](CN32)C4)ccc1Oc1ccc(C(F)(F)F)cc1` [Example 21] gave an IC50 of 6.4 nM. `N#Cc1cc(COc2cc3n(c(=O)n2)C[C@]24CO[C@H](CN32)C4)ccc1Oc1ccnc(C(F)(F)F)c1` [Example 22, 5-((((3S,11aR)-9-oxo-3,4-dihydro-1H,9H,11H-3,11a-methanopyrimido[6′,1′:2,3]imidazo[5,1-c][1,4]oxazin-7-yl)oxy)methyl)-2-((2-(trifluoromethyl)pyridin-4-yl)oxy)benzonitrile] was tested, and the IC50 was 3 nM. `O=c1nc(OCCc2ccc(Oc3ccc(Cl)c(C(F)(F)F)c3)cc2)cc2n1C[C@]13CO[C@H](CN21)C3` [Example 23, (3S,11aR)-7-(4-(4-chloro-3-(trifluoromethyl)phenoxy)phenethoxy)-3,4-dihydro-1H,9H,11H-3,11a-methanopyrimido[6′,1′:2,3] imidazo[5,1-c][1,4]oxazin-9-one] was tested, and the IC50 was 5 nM. For `O=c1nc(OCc2cc(F)c(F)c(F)c2)cc2n1C[C@]13CO[C@H](CN21)C3` [Example 24, (3S,11aR)-7-((3,4,5-trifluorobenzyl)oxy)-3,4-dihydro-1H,9H,11H-3,11a-methanopyrimido[6′,1′:2,3] imidazo[5,1-c][1,4]oxazin-9-one], the IC50 was 13.2 nM. In the case of `O=c1nc(OCc2ccc(F)c(F)c2)cc2n1C[C@]13CO[C@H](CN21)C3` [Example 25, (3S,11aR)-7-((3,4-trifluorobenzyl)oxy)-3,4-dihydro-1H,9H,11H-3,11a-methanopyrimido[6′,1′:2,3] imidazo[5,1-c][1,4]oxazin-9-one], the IC50 is reported as 10.4 nM. `O=c1nc(OCc2cc(F)c(Oc3ccnc(C(F)(F)F)c3)c(F)c2)cc2n1C[C@@]13CO[C@@H](CN21)C3` [Example 26, (3R,11aS)-7-((3,5-difluoro-4-((2-(trifluoromethyl)pyridin-4-yl)oxy)benzyl)oxy)-3,4-dihydro-1H,9H,11H-3,11a-methanopyrimido[6′,1′:2,3] imidazo[5,1-c][1,4]oxazin-9-one] gave an IC50 of 5.5 nM.
